Details: Liquid, Bellows volumetry

CC1CCCCC1 [methylcyclohexane]
mass density [kg/m3]
Details	410 K	450 K	500 K	550 K	600 K
10000 kPa	680.503	645.737	595.224	537.032	–
12000 kPa	–	–	–	–	485.331
20000 kPa	695.044	664.914	623.145	579.029	532.582
30000 kPa	707.272	680.595	643.213	605.816	567.711
40000 kPa	717.821	693.215	659.481	626.206	592.364
50000 kPa	727.698	704.34	672.946	642.447	611.576
60000 kPa	736.124	714.464	684.828	656.179	627.511
70000 kPa	743.853	723.281	695.54	668.08	641.114
80000 kPa	750.846	731.598	704.872	678.738	653.239
90000 kPa	757.777	739.304	713.602	688.637	664.012
100000 kPa	764.111	746.296	721.454	697.29	673.632
120000 kPa	776.018	759.037	735.845	713.086	690.895
140000 kPa	786.383	770.433	748.645	726.911	705.698
160000 kPa	795.899	780.708	759.878	739.33	718.93
180000 kPa	804.482	790.183	770.353	750.159	730.911
200000 kPa	812.647	798.897	779.786	760.464	741.384
